Here are results for one compound from patent publication US12642809B2, “Fucosylation and immune modulation in cancer” (H. LEE MOFFITT CANCER CENTER AND RESEARCH INSTITUTE, INC., priority 2019, dated 2026).

Assay [1] deals with SW1 tumors. Kind of assay: SW1 tumors in immunodeficient NSG mice fed with or without L-fuc. The assay is classed as in vivo, mouse. On the procedure: Four-to-six-week-old female C3HeN and male C57BL6 mice were purchased from Charles Rivers Laboratories for the indicated experiments. Four-to-six-week-old male NSG mice from the Lau laboratory breeding colony were used for the indicated experiments. Mice were housed in the Comparative Medicine Facility at H. Lee Moffitt Cancer Center and Research Institute. Mouse tumor volumes were measured using length, width and depth divided by 2. Generally, 10 mice were assigned to each indicated treatment cohort, and 1×10^6 melanoma cells were subcutaneously injected into the right rear flanks of the recipient mice. At each experimental endpoint, mice were humanely euthanized using CO2 inhalation in accordance to the American Veterinary Medical Association guidelines. […] All experiments were approved by the Institutional Animal Care and Use Committee (IACUC) in accordance with the National Research Council guidelines.
SW1 murine mouse melanoma cells were subcutaneously injected into the right rear flanks of NSG mice. After 7 days, when the tumors reached ˜150 mm^3, the mice were either supplemented with or without 100 mM L-fucose (Biosynth (Oak Terrace, IL)) via drinking water, which was provided ad libitum. When the tumors reached 2 cm^3, the animals were sacrificed.

Assay [2] relates to SW1 tumors. As to the kind of experiment: SW1/C3H/HeJ model, L-fucose with anti-CTLA4 or anti-PD1 (FIG. 10). The assay is classed as in vivo, mouse. The settings on record: oral L-fucose 100 mM from day 14. On the procedure: FIGS. 10A and 10B show Oral L-fucose is more tumor suppressive than α-CTLA4 or α-PD1 alone, beginnings of improved effects. SW1 tumor growth curves in mice fed ±100 mM L-fucose treated with either control (PBS) or […] (10A) or α-PD1 (10B). Combinations are color-coded as indicated. N=8 mice per condition. L-fucose was administered in the water starting on day 14 (refreshed twice weekly); α-CTLA4 or α-PD1 was administered (20 mg/kg each) twice weekly starting day 14.

The test system of assay [3] is SM1 tumors. Kind of assay: CD4+/CD8+ T cell immunodepletion, SM1 model. The assay is classed as in vivo, mouse. As to conditions: CD4+ T cell-depleted mice. How it is done: Single-cell suspensions from tumor and spleen tissue were stained with Live/Dead Zombie NIR (Biolegend, (San Diego, CA)) at 1:1,000 in PBS for 20 min. Cell suspensions were spun down and stained with the following antibodies: APC anti-mouse CD3 (0.5 μg/mL, BD Biosciences (San Jose, CA)), Pacific Blue anti-mouse CD4 ([…], BD Biosciences (San Jose, CA)), BV785 anti-mouse CD8 (0.5 μg/mL, BD Biosciences (San Jose, CA)), PerCP anti-mouse CD25 ([…], BD Biosciences (San Jose, CA)), FITC anti-mouse F4/80 (0.5 μg/mL, BD Biosciences (San Jose, CA)), PeCy7 anti-mouse CD11c (0.5 μg/mL, BD Biosciences (San Jose, CA)), PE anti-mouse NK1.1 (0.5 μg/mL, BD Biosciences (San Jose, CA)), PE anti-mouse DX5 (0.5 μg/mL, BD Biosciences (San Jose, CA)), PerCP-Cy5.5 anti-mouse CD11b (0.5 μg/mL, BD Biosciences (San Jose, CA)). After staining, the cells were washed and fixed (2% formaldehyde), followed by another wash and flow cytometric analysis. The compensation controls were prepared using 0.5 μg/ml. of each antibody with beads UltraComp eBeads™, (ThermoFisher Scientific (Waltham, MA)). […] Flow cytometric data was further analyzed using FlowJo™ analysis software (BD Biosciences (San Jose, CA)). TIL profiles were determined as a measure of TIL subpopulations per gram of tumor tissues or % of total splenocytes. […]

The test system of assay [4] is melanoma tumors. The settings on record: cited from earlier work.
Assay [5] relates to 1205Lu melanoma cells. As to the kind of experiment: LDH-release NK cell killing of pre-treated 1205Lu melanoma cells. The assay is classed as cell-based. As to conditions: 250 μM pre-treatment, 8 h co-culture, immortalized and primary human NK cells. How it is done:
The possibility that tumor fucosylation can directly activate the tumor cell-killing activity of NK cells was explored. To assay for this possibility, a lactate dehydrogenase (LDH)-release-based assay was used in which the fucosylation of LU1205 melanoma cells was modulated prior to co-culture with NK cells. Specifically, primary NK cells isolates (5A) or immortalized NK92 cell line (5B) were co-cultured with 1205Lu melanoma cells that were pre-treated with DMSO, 250 μM pan-fucosyltransferase inhibitor (FUTi), or 250 μM L-fucose for 8 hours. Non-radioactive LDH-release cytotoxicity assay was performed to measure extent of NK cell-mediated killing. […] Immunoblot analysis using AAL lectin (another fucose-binding lectin) was performed to confirm the effects of FUTi (5C) or L-fucose (5D) on 1205Lu cells (96 h treatment). (•: […]) (*: […]).

Take `C[C@H](O)[C@@H](O)[C@@H](O)[C@H](O)C=O` [L-fucose]: in assay [1], the “tumor growth with vs without L-fuc” value is reported as “no significant differences”. The “suppression of melanoma growth compared with checkpoint antibodies” value in assay [2] was “more significantly than anti-CTLA4 or anti-PD1 alone”. Moreover, in assay [3], the “L-fuc-triggered suppression of SM1 tumors and TIL increases” value was “abrogated”. For the same compound, the tumor suppression result in assay [4] (100 mM fucose dietary supplementation) was “increased tumor suppression”. Further, the “block/reduction of tumor growth (and metastasis)” value in assay [4] (dietary L-fucose supplementation) was more than 50%. Further, the “NK cells and CD4+ T cells in tumor samples” value in assay [4] (fucose supplemented mice) is “elevated”. For the same compound, the “NK cell-mediated tumor-cell killing” value in assay [5] is given as “sufficient to induce the tumor-cell killing activity”.
